# Measurements: ChEMBL document CHEMBL2390840, “An analysis of the synthetic tryptamines AMT and 5-MeO-DALT: emerging 'Novel Psychoactive Drugs'” (Bioorg Med Chem Lett, 2013)
# What was measured:
# [1] = target: Sodium-dependent dopamine transporter (Homo sapiens, UniProt Q01959); format: cell-based, HEK293
# [2] = target: Sodium-dependent noradrenaline transporter (Homo sapiens, UniProt P23975); experiment: Inhibition of [3H]norepinephrine uptake at human NET expressed in HEK293 cells preincubated for 10 mins prior to substrate addition measured after 4 mins by […]; format: cell-based
# Chain of Sodium-dependent noradrenaline transporter (P23975 whole entry): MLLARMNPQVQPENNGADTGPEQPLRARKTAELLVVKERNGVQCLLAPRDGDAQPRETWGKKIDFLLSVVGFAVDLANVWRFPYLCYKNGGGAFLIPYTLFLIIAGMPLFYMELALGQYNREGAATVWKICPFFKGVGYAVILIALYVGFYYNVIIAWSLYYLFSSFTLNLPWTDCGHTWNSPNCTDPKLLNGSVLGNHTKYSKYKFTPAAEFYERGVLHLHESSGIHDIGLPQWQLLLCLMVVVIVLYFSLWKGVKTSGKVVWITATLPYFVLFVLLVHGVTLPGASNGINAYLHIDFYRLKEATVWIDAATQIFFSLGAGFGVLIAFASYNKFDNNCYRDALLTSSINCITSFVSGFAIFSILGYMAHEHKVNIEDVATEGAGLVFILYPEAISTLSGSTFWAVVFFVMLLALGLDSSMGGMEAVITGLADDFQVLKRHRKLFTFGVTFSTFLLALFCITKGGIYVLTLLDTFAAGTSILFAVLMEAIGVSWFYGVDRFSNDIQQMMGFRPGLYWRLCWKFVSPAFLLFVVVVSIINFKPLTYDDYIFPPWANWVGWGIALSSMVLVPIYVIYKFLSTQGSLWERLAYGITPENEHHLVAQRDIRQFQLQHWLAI
# [3] = target: Sodium-dependent serotonin transporter (Homo sapiens, UniProt P31645); format: cell-based, HEK293
# Chain of Sodium-dependent serotonin transporter (P31645 whole entry): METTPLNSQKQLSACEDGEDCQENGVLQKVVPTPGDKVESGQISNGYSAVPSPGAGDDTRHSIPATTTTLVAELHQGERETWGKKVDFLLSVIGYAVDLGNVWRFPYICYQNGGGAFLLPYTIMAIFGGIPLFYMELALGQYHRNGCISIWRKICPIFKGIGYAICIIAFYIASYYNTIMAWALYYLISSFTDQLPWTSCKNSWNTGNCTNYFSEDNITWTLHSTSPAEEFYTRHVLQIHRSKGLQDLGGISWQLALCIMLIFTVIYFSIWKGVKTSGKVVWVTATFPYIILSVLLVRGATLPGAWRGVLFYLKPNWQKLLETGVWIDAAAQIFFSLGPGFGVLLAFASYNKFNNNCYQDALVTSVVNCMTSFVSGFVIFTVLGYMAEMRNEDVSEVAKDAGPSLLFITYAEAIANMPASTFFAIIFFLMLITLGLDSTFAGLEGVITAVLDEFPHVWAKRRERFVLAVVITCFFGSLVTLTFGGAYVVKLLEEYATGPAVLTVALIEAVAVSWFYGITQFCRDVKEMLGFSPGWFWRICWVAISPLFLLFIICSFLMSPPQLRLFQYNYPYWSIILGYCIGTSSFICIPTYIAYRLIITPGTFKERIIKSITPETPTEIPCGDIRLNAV
# Chain of Sodium-dependent dopamine transporter (Q01959 whole entry): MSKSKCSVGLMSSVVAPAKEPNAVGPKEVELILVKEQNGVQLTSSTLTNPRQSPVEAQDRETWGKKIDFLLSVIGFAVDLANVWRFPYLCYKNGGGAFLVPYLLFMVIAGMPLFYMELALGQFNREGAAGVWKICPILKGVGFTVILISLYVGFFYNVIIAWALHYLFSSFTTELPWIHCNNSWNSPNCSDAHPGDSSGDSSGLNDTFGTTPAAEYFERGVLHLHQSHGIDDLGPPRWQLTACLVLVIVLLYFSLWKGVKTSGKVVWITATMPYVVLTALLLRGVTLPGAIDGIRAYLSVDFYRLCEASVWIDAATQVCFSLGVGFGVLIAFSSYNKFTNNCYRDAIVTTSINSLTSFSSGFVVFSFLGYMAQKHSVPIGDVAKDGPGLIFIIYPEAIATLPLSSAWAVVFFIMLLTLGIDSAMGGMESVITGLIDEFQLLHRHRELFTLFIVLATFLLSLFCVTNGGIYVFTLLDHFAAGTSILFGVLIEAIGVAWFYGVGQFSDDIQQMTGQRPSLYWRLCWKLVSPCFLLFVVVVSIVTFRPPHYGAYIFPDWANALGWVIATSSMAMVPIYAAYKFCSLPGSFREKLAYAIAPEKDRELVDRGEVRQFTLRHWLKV
Compound,IC50 [1] [µM],Ki [1] [µM],IC50 [2] [µM],IC50 [3] [µM],Ki [2] [µM],Ki [3] [µM]
CN(C)CCC=C1c2ccccc2CCc2ccccc21 [AMITRIPTYLINE],12.6,6.2,–,–,–,–
"CN[C@@H](C)Cc1ccc2c(c1)OCO2 (single isomer, unassigned; (+)) [MIDOMAFETAMINE]",2.4,0.897,2,2.75,–,–
"CC(N)Cc1ccc2c(c1)OCO2 (single isomer, unassigned; (-)) [TENAMFETAMINE]",6.17,2.42,3.16,6.76,0.704,2.31
